Reference: patent publication US20240141299A1, “Cofactors FAD and PLP for Promoting Pancreatic Progenitors in Pancreatic Development” (Qatar Foundation for Education, Science and Community …, priority 2022, published 2024)

Assays:
[1] = biological target: T1, SOX9 HMG domain (Mus musculus, UniProt Q04887); test: UV-visible absorbance spectroscopy of purified SOX9 HMG domain for bound cofactor; format: binding; details: purified SOX9 HMG domain from bacterial expression; FIG. 1E
T1 construct: construct containing HMG and N-terminal domain, 1-173 amino acids; His tag (pET-28a) (N); made in house; host or cells: E. coli BL21(DE3)-RIL
T1 sequence (Q04887 1-173): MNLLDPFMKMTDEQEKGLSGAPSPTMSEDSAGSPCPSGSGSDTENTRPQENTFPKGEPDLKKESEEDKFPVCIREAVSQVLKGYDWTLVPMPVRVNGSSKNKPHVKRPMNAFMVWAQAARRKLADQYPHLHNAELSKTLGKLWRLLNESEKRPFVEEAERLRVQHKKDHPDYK
Description: Purified SOX9 proteins of 2-4 mg/ml concentration are used for reading the absorbance of bind cofactors. The UV-Vis spectra are obtained on a UV-Vis spectrophotometer BMS (Biotechnology Medical Science) UV-1602, scanning from 300 nm to 800 nm. The baseline is corrected with the buffer used to prepare the protein samples.

[2] = biological target: T2, SOX2 HMG domain (Homo sapiens, UniProt P48431); test: UV-visible absorbance spectroscopy of purified SOX2 HMG domain for bound cofactor; format: binding; details: purified SOX2 HMG domain from bacterial expression
T2 construct: made in house
T2 sequence (P48431 41-109 limits assumed): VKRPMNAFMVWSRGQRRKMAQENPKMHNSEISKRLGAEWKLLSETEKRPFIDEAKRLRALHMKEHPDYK

[3] = biological target: T1, SOX9 HMG domain; test: 1D-PAGE in-gel digest and LC-MS/MS of SOX9 HMG domain to identify bound cofactor; format: binding; details: purified SOX9 HMG domain; FIG. 2
Description: MS data are analyzed and annotated with Genedata Expressionist software (v.13.0.1) using the Peptide Mapping Tool. The raw MS data are processed using two Genedata modules: Refiner MS for data pre-processing, and Analyst for data post-processing and statistical analyses. Briefly, after noise reduction, LC-MS1 base peaks are detected and their properties calculated (m/z and RT boundaries, m/z and RT center values, intensity). Chromatograms are further aligned based on the RT spectra using a 2 min range. Individual peaks are grouped into clusters and MS/MS data associated to these clusters are annotated with the Peptide Mapping Tool using the FASTA sequence of sp|Q04887|SOX9_MOUSE Transcription factor SOX-9. The search is performed with a peptide tolerance of 0.1 Da, a MS/MS tolerance of 0.01 Da, two allowed missed cleavages, and only annotations with a minimum score of 10 are considered. As variable modifications, the following parameters are applied: carbamidomethyl (C) maximum: 2 per sequence allowed: anywhere, FAD (C), FAD (H), FAD (Y) maximum: 2 per sequence allowed: anywhere, FMN (S), FMN (T) maximum: 2 per sequence allowed: anywhere, pyridoxal phosphate (K) maximum: 2 per sequence allowed: anywhere, and pyridoxal phosphate H2 (K) maximum: 2 per sequence allowed: anywhere.

[4] = system: hiPSC-derived pancreatic progenitors; test: Expression of pancreatic developmental markers after cofactor treatment of differentiating hiPSCs (FIG. 5, FIG. 8); format: cell-based, human
Description: Human induced pluripotent stem cells (hiPSCs) are cultured and maintained using mTeSR Plus medium (Stem Cell Technologies, Canada), then plated on 1:50 Matrigel-coated dishes (Corning, USA). Upon reaching 70-80% confluency, cells are differentiated into pancreatic progenitors using a protocol described by Memon et al. (Memon et al. Stem Cell Research and Therapy, 9, Article 15, 2018). Cells are treated with different concentrations of FAD (0.25 μM, 0.5 μM, and 1 μM) (Sigma-Aldrich, Germany) during the four days of pancreatic progenitor stage of in vitro differentiation. The control cells are treated with water.

[5] = system: hiPSC-derived pancreatic progenitors; test: Immunostaining of PDX1 and NKX6.1 in FAD-treated pancreatic progenitors; format: cell-based, human; details: different FAD concentrations during four days of pancreatic progenitor stage; FIG. 6
Description: (§1) Human induced pluripotent stem cells (hiPSCs) are cultured and maintained using mTeSR Plus medium (Stem Cell Technologies, Canada), then plated on 1:50 Matrigel-coated dishes (Corning, USA). Upon reaching 70-80% confluency, cells are differentiated into pancreatic progenitors using a protocol described by Memon et al. (Memon et al. Stem Cell Research and Therapy, 9, Article 15, 2018). Cells are treated with different concentrations of FAD (0.25 μM, 0.5 μM, and 1 μM) (Sigma-Aldrich, Germany) during the four days of pancreatic progenitor stage of in vitro differentiation. The control cells are treated with water. After the treatment period, cells are fixed and immunostaining is performed using previously reported protocols by Memon et al. Cells are also collected for total protein extraction using Radioimmunoprecipitation Assay (RIPA) lysis buffer and are normalized to 20 ng/μL before SDS-PAGE separation. Nitrocellulose membranes are blocked using 15% skimmed milk in 0.5% tris-buffered saline (TBST). Membranes are then incubated with primary antibodies overnight at 4° C. Membranes are washed with 0.5% TBST and secondary antibodies are added for 1 hour at room temperature. Membranes are developed using SuperSignal West Pico Chemiluminescent substrate (Pierce, Loughborough, UK) and are then visualized using iBright™ CL 1000 Imaging System (Invitrogen).

[6] = system: hiPSC-derived pancreatic progenitors; test: Western blotting of transcription factors in FAD-treated pancreatic progenitors; format: cell-based, human; details: FIG. 7
Description: as §1

SMILES | absorbance peak at approximately 420 nm (FAD-bound protein) [1] | absorbance peak at approximately 420 nm (FAD-bound protein) [2] | cofactor binding detected by LC-MS/MS peaks [3] | relative changes in NGN3 and NKX6.1 ([4]; FAD added to early stage differentiation, FIG. 5) | expression of NGN3 ([4]; about 0.5 μM FAD, FIG. 8A) | co-expression of PDX1 and NKX6.1 (efficiency of pancreatic progenitor differentiation) [5] | PTF1a level (exocrine marker) ([6]; 0.5 μM and 1 μM FAD) | SOX9 level ([6]; FAD 0.25 μM, 0.5 μM, 1 μM, four days of pancreatic progenitor stage) | expression of NGN3 ([4]; about 4 μM-8 μM PLP, FIG. 8B) | expression of PTF1a ([4]; about 4 μM-8 μM PLP, FIG. 8B)
Cc1cc2nc3c(=O)[nH]c(=O)nc-3n(C[C@H](O)[C@H](O)[C@H](O)COP(=O)(O)OP(=O)(O)OC[C@H]3O[C@@H](n4cnc5c(N)ncnc54)[C@H](O)[C@@H]3O)c2cc1C [FAD, Flavin Adenine Dinucleotide] | peak at approximately 420 nm characteristic of an FAD-bound protein | no obvious peak | suggestive of FAD, FMN and PLP binding | appears to increase pancreatic developmental factors | along with NGN3 | most of the pancreatic progenitor cells co-expressed PDX1 and NKX6.1 | increased | increases gradually with increased FAD concentrations | – | –
Cc1cc2nc3c(=O)[nH]c(=O)nc-3n(C[C@H](O)[C@H](O)[C@H](O)COP(=O)(O)O)c2cc1C [FMN, Flavin Mononucleotide] | – | – | suggestive of FAD, FMN and PLP binding | – | – | – | – | – | – | –
Cc1ncc(COP(=O)(O)O)c(C=O)c1O [PLP, Pyridoxal 5′-phosphate] | – | – | suggestive of FAD, FMN and PLP binding | – | – | – | – | – | high expression of NGN3 | appearance of PTF1a
